Assays:
[1] = target: Mu-type opioid receptor (Mus musculus) (UniProt P42866); test: Partial agonist activity at mouse mu opioid receptor expressed in CHO cell membranes assessed as stimulation of [35S]GTPgammaS binding incubated for 1.5 hrs by scintillation counting method relative to DAMGO; assay type: functional; settings: Membrane
[2] = target: T1, Mu-type opioid receptor (Mus musculus, UniProt P42866); test: Partial agonist activity at mouse mu opioid receptor expressed in CHO cell membranes incubated for 1.5 hrs by [35S]GTPgammaS binding based scintillation counting method; assay type: functional, Membrane
[3] = target: T1, Mu-type opioid receptor; test: Displacement of [3H]-NLX from mouse mu opioid receptor expressed in CHO cell membranes measured after 1.5 hrs by competitive radioligand binding assay; design: species or system Membrane
[4] = target: Mu-type opioid receptor (Homo sapiens) (UniProt P35372); test: Partial agonist activity at mu opioid receptor (unknown origin) expressed in CHO cell membranes incubated for 1 hr by [35S]GTPgammaS binding assay relative to DAMGO; assay type: functional; settings: Membrane
Mu-type opioid receptor (Homo sapiens), sequence (P35372 whole entry): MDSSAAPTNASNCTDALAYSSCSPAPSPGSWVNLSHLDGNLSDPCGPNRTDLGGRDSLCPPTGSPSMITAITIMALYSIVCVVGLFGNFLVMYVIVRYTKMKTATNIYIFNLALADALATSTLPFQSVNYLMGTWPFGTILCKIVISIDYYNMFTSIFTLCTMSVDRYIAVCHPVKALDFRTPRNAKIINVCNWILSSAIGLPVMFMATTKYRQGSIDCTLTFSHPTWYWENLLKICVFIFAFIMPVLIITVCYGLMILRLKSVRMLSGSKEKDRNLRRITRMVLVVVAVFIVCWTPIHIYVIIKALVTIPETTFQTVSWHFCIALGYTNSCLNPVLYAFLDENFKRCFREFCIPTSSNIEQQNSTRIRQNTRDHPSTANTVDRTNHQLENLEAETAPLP

T1 sequence (P42866 whole entry): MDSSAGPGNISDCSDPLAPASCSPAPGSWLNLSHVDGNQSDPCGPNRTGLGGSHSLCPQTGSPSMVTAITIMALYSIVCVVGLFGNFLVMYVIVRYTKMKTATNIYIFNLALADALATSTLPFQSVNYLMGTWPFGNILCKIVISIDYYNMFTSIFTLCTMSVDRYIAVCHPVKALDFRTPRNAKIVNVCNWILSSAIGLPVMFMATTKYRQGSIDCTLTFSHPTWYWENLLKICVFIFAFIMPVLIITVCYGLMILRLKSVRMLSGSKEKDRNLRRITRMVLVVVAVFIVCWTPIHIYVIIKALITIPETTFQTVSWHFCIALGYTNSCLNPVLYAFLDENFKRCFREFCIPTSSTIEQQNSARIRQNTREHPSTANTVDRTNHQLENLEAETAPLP
Mu-type opioid receptor (Mus musculus), sequence (P42866 whole entry): as above

| SMILES | Emax [4] [%] | further results |
| --- | --- | --- |
| O=C(N[C@H]1C=C[C@@]2(O)[C@H]3Cc4ccc(O)c5c4[C@@]2(CCN3CC2CC2)[C@H]1O5)c1c[nH]c2ccccc12 |  | Emax [1]: 33.3%; EC50 [2]: 1000 pM; Ki [3]: 290 pM |
| O=C(N[C@@H]1C=C[C@@]2(O)[C@H]3Cc4ccc(O)c5c4[C@@]2(CCN3CC2CC2)[C@H]1O5)c1c[nH]c2ncccc12 |  | Emax ([4]; filed as partial agonist): 40.7% |
| O=C(N[C@H]1C=C[C@@]2(O)[C@H]3Cc4ccc(O)c5c4[C@@]2(CCN3CC2CC2)[C@H]1O5)c1cccc2cc[nH]c12 |  | Emax [1]: 19.1% |
| O=C(N[C@@H]1C=C[C@@]2(O)[C@H]3Cc4ccc(O)c5c4[C@@]2(CCN3CC2CC2)[C@H]1O5)c1c[nH]c2cnccc12 | 26.2 |  |
| O=C(N[C@H]1C=C[C@@]2(O)[C@H]3Cc4ccc(O)c5c4[C@@]2(CCN3CC2CC2)[C@H]1O5)c1c[nH]c2ncccc12 | 22.1 |  |
| O=C(N[C@H]1C=C[C@@]2(O)[C@H]3Cc4ccc(O)c5c4[C@@]2(CCN3CC2CC2)[C@H]1O5)c1c[nH]c2cccnc12 | 18 |  |
| O=C(N[C@H]1C=C[C@@]2(O)[C@H]3Cc4ccc(O)c5c4[C@@]2(CCN3CC2CC2)[C@H]1O5)c1c[nH]c2ccncc12 | 21.7 |  |
| O=C(N[C@@H]1C=C[C@@]2(O)[C@H]3Cc4ccc(O)c5c4[C@@]2(CCN3CC2CC2)[C@H]1O5)c1c[nH]c2cccnc12 | 22.4 |  |
| O=C(N[C@@H]1C=C[C@@]2(O)[C@H]3Cc4ccc(O)c5c4[C@@]2(CCN3CC2CC2)[C@H]1O5)c1c[nH]c2ccccc12 |  | Emax ([1]; filed as partial agonist): 79.5%; EC50 [2]: 220 pM; Ki [3]: 190 pM |
| O=C(N[C@@H]1C=C[C@@]2(O)[C@H]3Cc4ccc(O)c5c4[C@@]2(CCN3CC2CC2)[C@H]1O5)c1c[nH]c2ccncc12 | 14.9 |  |
| O=C(N[C@H]1C=C[C@@]2(O)[C@H]3Cc4ccc(O)c5c4[C@@]2(CCN3CC2CC2)[C@H]1O5)c1n[nH]c2ccccc12 | 12.3 |  |
| O=C(N[C@@H]1C=C[C@@]2(O)[C@H]3Cc4ccc(O)c5c4[C@@]2(CCN3CC2CC2)[C@H]1O5)c1n[nH]c2ccccc12 | 39.6 |  |
| O=C(N[C@H]1C=C[C@@]2(O)[C@H]3Cc4ccc(O)c5c4[C@@]2(CCN3CC2CC2)[C@H]1O5)c1c[nH]c2cnccc12 | 21.1 |  |

Reference: ChEMBL document CHEMBL4814025, “Exploring naltrexamine derivatives featuring azaindole moiety via nitrogen-walk approach to investigate their in vitro pharmacological profiles at the mu opioid receptor” (Bioorg Med Chem Lett, 2021)
